Key:
A-375 [1] = test: Antiproliferative activity against human A375 cells assessed as reduction in cell growth at 8 uM incubated for 72 hrs by CCK-8 assay relative to control; assay type: functional; conditions: A-375, 72 h
A-375 [2] = test: Antiproliferative activity against human A375 cells assessed as reduction in cell growth at 2 uM incubated for 72 hrs by CCK-8 assay relative to control; assay type: functional; conditions: A-375, 72 h
HeLa [3] = test: Antiproliferative activity against human HeLa cells assessed as reduction in cell growth at 8 uM incubated for 72 hrs by CCK-8 assay relative to control; assay type: functional
HeLa [4] = test: Antiproliferative activity against human HeLa cells assessed as reduction in cell growth at 2 uM incubated for 72 hrs by CCK-8 assay relative to control; assay type: functional
A549 [5] = test: Antiproliferative activity against human A549 cells assessed as reduction in cell growth at 8 uM incubated for 72 hrs by CCK-8 assay relative to control; assay type: functional; conditions: A549, 72 h
A549 [6] = test: Antiproliferative activity against human A549 cells assessed as reduction in cell growth at 2 uM incubated for 72 hrs by CCK-8 assay relative to control; assay type: functional; conditions: A549, 72 h
HCT-116 [7] = test: Antiproliferative activity against human HCT116 cells assessed as reduction in cell growth at 8 uM incubated for 72 hrs by CCK-8 assay relative to control; assay type: functional; conditions: HCT-116, 72 h
HCT-116 [8] = test: Antiproliferative activity against human HCT116 cells assessed as reduction in cell growth at 2 uM incubated for 72 hrs by CCK-8 assay relative to control; assay type: functional; conditions: HCT-116, 72 h
SMMC-7721 [9] = test: Antiproliferative activity against human SMMC7721 cells assessed as reduction in cell growth at 8 uM incubated for 72 hrs by CCK-8 assay relative to control; assay type: functional; conditions: SMMC-7721, 72 h
SMMC-7721 [10] = test: Antiproliferative activity against human SMMC7721 cells assessed as reduction in cell growth at 2 uM incubated for 72 hrs by CCK-8 assay relative to control; assay type: functional; conditions: SMMC-7721, 72 h
HeLa [11] = test: Antiproliferative activity against human HeLa cells assessed as reduction in cell growth incubated for 72 hrs by CCK-8 assay; assay type: functional, cell-based
A549 [12] = test: Antiproliferative activity against human A549 cells assessed as reduction in cell growth incubated for 72 hrs by CCK-8 assay; assay type: functional, cell-based; conditions: A549, 72 h
SMMC-7721 [13] = test: Cell cycle arrest in human SMMC7721 cells assessed as accumulation at G0/G1 phase at 0.25 uM incubated for 48 hrs by propidium iodide staining based flow cytometry (Rvb=77%); assay type: functional
SMMC-7721 [14] = test: Cell cycle arrest in human SMMC7721 cells assessed as accumulation at S phase at 0.25 uM incubated for 48 hrs by propidium iodide staining based flow cytometry (Rvb=6.83%); assay type: functional
SMMC-7721 [15] = test: Cell cycle arrest in human SMMC7721 cells assessed as accumulation at G2/M phase at 0.25 uM incubated for 48 hrs by propidium iodide staining based flow cytometry (Rvb=16.17%); assay type: functional
SMMC-7721 [16] = test: Cell cycle arrest in human SMMC7721 cells assessed as accumulation at G0/G1 phase at 1 uM incubated for 48 hrs by propidium iodide staining based flow cytometry (Rvb=77%); assay type: functional
SMMC-7721 [17] = test: Cell cycle arrest in human SMMC7721 cells assessed as accumulation at S phase at 1 uM incubated for 48 hrs by propidium iodide staining based flow cytometry (Rvb=6.83%); assay type: functional
SMMC-7721 [18] = test: Cell cycle arrest in human SMMC7721 cells assessed as accumulation at G2/M phase at 1 uM incubated for 48 hrs by propidium iodide staining based flow cytometry (Rvb=16.17%); assay type: functional
SMMC-7721 [19] = test: Cell cycle arrest in human SMMC7721 cells assessed as accumulation at G0/G1 phase at 4 uM incubated for 48 hrs by propidium iodide staining based flow cytometry (Rvb=77%); assay type: functional
SMMC-7721 [20] = test: Cell cycle arrest in human SMMC7721 cells assessed as accumulation at S phase at 4 uM incubated for 48 hrs by propidium iodide staining based flow cytometry (Rvb=6.83%); assay type: functional
SMMC-7721 [21] = test: Cell cycle arrest in human SMMC7721 cells assessed as accumulation at G2/M phase at 4 uM incubated for 48 hrs by propidium iodide staining based flow cytometry (Rvb=16.17%); assay type: functional
SMMC-7721 [22] = test: Induction of apoptosis in human SMMC7721 cells assessed as viable cells at 0.25 uM incubated for 48 hrs by Annexin-V-FITC/propidium iodide staining based flow cytometry (Rvb=93.5%); assay type: functional; conditions: SMMC-7721, 48 h, read-out: Activity
SMMC-7721 [23] = test: Induction of apoptosis in human SMMC7721 cells assessed as early apoptotic cells at 0.25 uM incubated for 48 hrs by Annexin-V-FITC/propidium iodide staining based flow cytometry (Rvb=2.88%); assay type: functional
SMMC-7721 [24] = test: Induction of apoptosis in human SMMC7721 cells assessed as late apoptotic cells at 0.25 uM incubated for 48 hrs by Annexin-V-FITC/propidium iodide staining based flow cytometry (Rvb=1.73%); assay type: functional
SMMC-7721 [25] = test: Induction of apoptosis in human SMMC7721 cells assessed as necrotic cells at 0.25 uM incubated for 48 hrs by Annexin-V-FITC/propidium iodide staining based flow cytometry (Rvb=1.88%); assay type: functional
SMMC-7721 [26] = test: Induction of apoptosis in human SMMC7721 cells assessed as viable cells at 1 uM incubated for 48 hrs by Annexin-V-FITC/propidium iodide staining based flow cytometry (Rvb=93.5%); assay type: functional; conditions: SMMC-7721, 48 h, read-out: Activity
SMMC-7721 [27] = test: Induction of apoptosis in human SMMC7721 cells assessed as early apoptotic cells at 1 uM incubated for 48 hrs by Annexin-V-FITC/propidium iodide staining based flow cytometry (Rvb=2.88%); assay type: functional
SMMC-7721 [28] = test: Induction of apoptosis in human SMMC7721 cells assessed as late apoptotic cells at 1 uM incubated for 48 hrs by Annexin-V-FITC/propidium iodide staining based flow cytometry (Rvb=1.73%); assay type: functional
SMMC-7721 [29] = test: Induction of apoptosis in human SMMC7721 cells assessed as necrotic cells at 1 uM incubated for 48 hrs by Annexin-V-FITC/propidium iodide staining based flow cytometry (Rvb=1.88%); assay type: functional
SMMC-7721 [30] = test: Induction of apoptosis in human SMMC7721 cells assessed as viable cells at 4 uM incubated for 48 hrs by Annexin-V-FITC/propidium iodide staining based flow cytometry (Rvb=93.5%); assay type: functional; conditions: SMMC-7721, 48 h, read-out: Activity
SMMC-7721 [31] = test: Induction of apoptosis in human SMMC7721 cells assessed as early apoptotic cells at 4 uM incubated for 48 hrs by Annexin-V-FITC/propidium iodide staining based flow cytometry (Rvb=2.88%); assay type: functional
SMMC-7721 [32] = test: Induction of apoptosis in human SMMC7721 cells assessed as late apoptotic cells at 4 uM incubated for 48 hrs by Annexin-V-FITC/propidium iodide staining based flow cytometry (Rvb=1.73%); assay type: functional
SMMC-7721 [33] = test: Induction of apoptosis in human SMMC7721 cells assessed as necrotic cells at 4 uM incubated for 48 hrs by Annexin-V-FITC/propidium iodide staining based flow cytometry (Rvb=1.88%); assay type: functional
NIH3T3 = test: Cytotoxicity against mouse NIH/3T3 cells assessed as reduction in cell viability after 48 hrs by CCK8 assay; assay type: cell-based; conditions: NIH3T3, 48 h
SMMC-7721 [34] = test: Antiproliferative activity against human SMMC7721 cells assessed as reduction in cell growth incubated for 72 hrs by CCK-8 assay; assay type: functional, cell-based; conditions: SMMC-7721, 72 h
A549 [35] = test: Antitumor activity against human A549 cells xenografted in BALB/C mouse assessed as tumor growth inhibition at 25 mg/kg, ip bid for 21 days measured at 3 days interval during compound dosing relative to control; assay type: functional; conditions: read-out: TGI
A-375 [36] = test: Antiproliferative activity against human A375 cells assessed as reduction in cell growth incubated for 72 hrs by CCK-8 assay; assay type: functional, cell-based; conditions: A-375, 72 h
Histone deacetylase 2 = Histone deacetylase 2 (Homo sapiens, UniProt Q92769); test: Inhibition of human recombinant His-tagged HDAC2 ([…]) expressed in baculovirus infected insect cells using FLUOR DE LYS Green as substrate preincubated for 10 mins followed by substrate addition and measured after 30 mins by fluorescence method
Chain of Histone deacetylase 2 (Q92769 whole entry): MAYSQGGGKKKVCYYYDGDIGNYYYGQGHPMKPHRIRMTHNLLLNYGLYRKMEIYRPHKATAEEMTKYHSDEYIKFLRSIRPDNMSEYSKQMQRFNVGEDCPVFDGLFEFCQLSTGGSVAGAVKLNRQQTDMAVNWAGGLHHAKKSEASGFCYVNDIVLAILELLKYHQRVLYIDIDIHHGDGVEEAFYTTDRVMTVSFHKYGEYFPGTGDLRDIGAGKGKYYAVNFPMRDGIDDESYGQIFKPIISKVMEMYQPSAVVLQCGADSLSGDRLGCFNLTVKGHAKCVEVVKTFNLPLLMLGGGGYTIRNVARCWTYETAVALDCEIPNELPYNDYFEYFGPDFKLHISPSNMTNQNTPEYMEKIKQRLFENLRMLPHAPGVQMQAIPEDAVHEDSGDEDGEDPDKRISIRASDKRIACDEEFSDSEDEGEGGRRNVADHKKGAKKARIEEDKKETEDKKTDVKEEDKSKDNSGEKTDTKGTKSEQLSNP

IC50 (HeLa [11]) [µM]	Compound	inhibition at 8 µM (A-375 [1]) [%]	inhibition at 2 µM (A-375 [2]) [%]	inhibition at 8 µM (HeLa [3]) [%]	inhibition at 2 µM (HeLa [4]) [%]	inhibition at 8 µM (A549 [5]) [%]	inhibition at 2 µM (A549 [6]) [%]	inhibition at 8 µM (HCT-116 [7]) [%]	inhibition at 2 µM (HCT-116 [8]) [%]	inhibition at 8 µM (SMMC-7721 [9]) [%]	inhibition at 2 µM (SMMC-7721 [10]) [%]	Activity (SMMC-7721 [13]) [%]	Activity (SMMC-7721 [14]) [%]	Activity (SMMC-7721 [15]) [%]	Activity (SMMC-7721 [16]) [%]	Activity (SMMC-7721 [17]) [%]	Activity (SMMC-7721 [18]) [%]	Activity (SMMC-7721 [19]) [%]	Activity (SMMC-7721 [20]) [%]	Activity (SMMC-7721 [21]) [%]	further results
2.36	Nc1ccccc1NC(=O)c1ccc(CNC(=O)OCc2cccnc2)cc1 [ENTINOSTAT]	83.1	30.2	89.8	42.4	47.3	20	72.3	67.3	48.7	28.2	75.1	9.47	15.43	76.1	9.55	14.35	71.44	14.21	14.35	IC50 (A549 [12]): 7.15 µM; viability at 0.25 µM (SMMC-7721 [22]): 91.4%; Activity (SMMC-7721 [23]): 4.13%; Activity (SMMC-7721 [24]): 3.31%; Activity (SMMC-7721 [25]): 1.18%; viability at 1 µM (SMMC-7721 [26]): 81.5%; Activity (SMMC-7721 [27]): 6.66%; Activity (SMMC-7721 [28]): 9.39%; Activity (SMMC-7721 [29]): 2.5%; viability at 4 µM (SMMC-7721 [30]): 53.9%; Activity (SMMC-7721 [31]): 12.5%; Activity (SMMC-7721 [32]): 27.9%; Activity (SMMC-7721 [33]): 5.64%; IC50 (NIH3T3): 2.42 µM
18.8	CC(=O)Nc1ccc(C(=O)Nc2ccccc2N)cc1 [TACEDINALINE]	33.5	13.4	32.4	13.4	29.1	23.5	44	13	29.1	23.5	76.9	15.37	7.73	75.86	17.41	6.73	70.12	11.67	18.21	IC50 (SMMC-7721 [34]): > 32 µM; viability at 0.25 µM (SMMC-7721 [22]): 88.4%; Activity (SMMC-7721 [23]): 4.7%; Activity (SMMC-7721 [24]): 5.37%; Activity (SMMC-7721 [25]): 1.55%; viability at 1 µM (SMMC-7721 [26]): 86.5%; Activity (SMMC-7721 [27]): 4.99%; Activity (SMMC-7721 [28]): 6.72%; Activity (SMMC-7721 [29]): 1.74%; viability at 4 µM (SMMC-7721 [30]): 65.7%; Activity (SMMC-7721 [31]): 10.2%; Activity (SMMC-7721 [32]): 19.3%; Activity (SMMC-7721 [33]): 4.85%; IC50 (NIH3T3): 9.05 µM; inhibition in vivo at 25 mg/kg (A549 [35]): 46.8%
12.6	Nc1ccc(F)cc1NC(=O)c1ccc(CNC(=O)/C=C/c2cccnc2)cc1	63.6	27.6	52	13.4	25.5	8	87.4	61.1	58.9	42.1	77.96	13.28	8.76	76.44	13.16	10.4	76.78	13.53	9.69	IC50 (SMMC-7721 [34]): > 26 µM; IC50 (A-375 [36]): 4.21 µM; IC50 (Histone deacetylase 2): 0.31 µM; viability at 0.25 µM (SMMC-7721 [22]): 88.6%; Activity (SMMC-7721 [23]): 5.74%; Activity (SMMC-7721 [24]): 3.88%; Activity (SMMC-7721 [25]): 1.77%; viability at 1 µM (SMMC-7721 [26]): 84.7%; Activity (SMMC-7721 [27]): 5.09%; Activity (SMMC-7721 [28]): 7.88%; Activity (SMMC-7721 [29]): 2.34%; viability at 4 µM (SMMC-7721 [30]): 61.6%; Activity (SMMC-7721 [31]): 15.2%; Activity (SMMC-7721 [32]): 19.1%; Activity (SMMC-7721 [33]): 4.08%; IC50 (NIH3T3): 2.37 µM
